Legend:
bermudagrass = experiment: Test C pre-/postemergence herbicide test; assay type: in vivo, Cynodon dactylon; conditions: for Plant response rating, Bermudagrass / Plant response rating (0 = no effect, 100 = complete control), Bermudagrass: preemergence; for Bermudagrass plant response rating: Preemergence
Procedure, shortened: (§1)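 Pre- and postemergence application, solvent/surfactant formulation; post at 1- to 4-leaf stage (2–18 cm). Greenhouse 12–14 d. Visual rating vs controls, 0 = no effect, 100 = complete control.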

woolly cupgrass = experiment: Test C pre-/postemergence herbicide test; assay type: in vivo, Eriochloa villosa; conditions: for Plant response rating, Cupgrass, Woolly / Plant response rating (0 = no effect, 100 = complete control), Cupgrass, Woolly: preemergence
Procedure, shortened: as §1

giant foxtail = experiment: Test C pre-/postemergence herbicide test; assay type: in vivo, Setaria faberi; conditions: for Plant response rating, Foxtail, Giant / Plant response rating (0 = no effect, 100 = complete control), Foxtail, Giant: preemergence
Procedure, shortened: as §1

goosegrass = experiment: Test C pre-/postemergence herbicide test; assay type: in vivo, Eleusine indica; conditions: for Plant response rating, Goosegrass / Plant response rating (0 = no effect, 100 = complete control), Goosegrass: preemergence
Procedure, shortened: as §1

common ragweed = experiment: Test C pre-/postemergence herbicide test; assay type: in vivo, Ambrosia elatior; design: key to Plant response rating, Ragweed: 0 = no effect, 100 = complete control; conditions: for Plant response rating, Ragweed / Plant response rating (0 = no effect, 100 = complete control), Ragweed: preemergence
Procedure, shortened: as §1

[1] = tested on: common (oilseed) sunflower; experiment: Test C pre-/postemergence herbicide test; assay type: in vivo, Helianthus annuus; conditions: for Plant response rating, Sunflower / Plant response rating (0 = no effect, 100 = complete control), Sunflower: preemergence
Procedure, shortened: as §1

[2] = tested on: smallflower umbrella sedge; experiment: Test C flooded paddy test; assay type: in vivo, Cyperus difformis; conditions: for Plant response rating, Sedge, Umbrella: 500 g ai/ha, visual rating after 12 to 14 days
[3] = 62 g ai/ha, scale 0 to 100, 0 no effect, 100 complete control
[4] = 500 g ai/ha, scale 0 to 100 (0 no effect, 100 complete control), visual, 12 to 14 days
[5] = 125 g ai/ha, scale 0 to 100 (0 no effect, 100 complete control)
[6] = 250 g ai/ha, scale of 0 to 100, 0 is no effect, 100 is complete control
[7] = scale 0 to 100 (0 no effect, 100 complete control)
[8] = 125 g ai/ha, scale 0 (no effect) to 100 (complete control), visual, 12 to 14 days
[9] = 500 g ai/ha, scale 0 to 100, 0 no effect, 100 complete control
[10] = Preemergence, 500 g ai/ha, scale 0 to 100, 0 no effect, 100 complete control

SMILES | Plant response rating, Bermudagrass (bermudagrass; [3]) | Plant response rating, Bermudagrass (bermudagrass; 250 g ai/ha, scale 0-100) | Plant response rating, Cupgrass, Woolly (woolly cupgrass; 62 g ai/ha, scale 0 to 100) | Plant response rating, Cupgrass, Woolly (woolly cupgrass; 250 g ai/ha, scale 0-100) | Plant response rating, Cupgrass, Woolly (woolly cupgrass; [4]) | Plant response rating, Foxtail, Giant (giant foxtail; 62 g ai/ha, scale 0 to 100) | Plant response rating, Foxtail, Giant (giant foxtail; 250 g ai/ha, scale 0-100) | Plant response rating, Foxtail, Giant (giant foxtail; [4]) | Plant response rating, Goosegrass (goosegrass; 62 g ai/ha, scale 0 to 100) | Plant response rating, Goosegrass (goosegrass; 250 g ai/ha, scale 0-100) | Plant response rating, Goosegrass (goosegrass; [4]) | Plant response rating, Ragweed (common ragweed; 62 g ai/ha, scale 0 to 100) | Plant response rating, Ragweed (common ragweed; [4]) | Plant response rating, Sunflower ([1]; 62 g ai/ha, scale 0 to 100) | Plant response rating, Sunflower [1, 4] | Sedge, Umbrella plant response rating ([2]; 62 g ai/ha, scale 0 to 100) | Sedge, Umbrella plant response rating [2, 5] | Sedge, Umbrella plant response rating [2, 6] | Plant response rating, Sedge, Umbrella [2, 7] | Plant response rating, Ragweed (common ragweed; 250 g ai/ha, scale 0-100) | further results
CCc1nn(C(C)C)nc1C(=O)Nc1cccc(C(=S)N(C)C)c1 [Compound 409] | 40 | 85 | 40 | 80 | 80 | 30 | 95 | 95 | 80 | 95 | 95 | 45 | 95 | 0 | 55 | 70 | 75 | 85 | 90 | – | Plant response rating (0 = no effect, 100 = complete control), Bermudagrass (bermudagrass; 125 g ai/ha): 50; Plant response rating, Bermudagrass (bermudagrass; [4]): 85; Plant response rating (0 = no effect, 100 = complete control), Cupgrass, Woolly (woolly cupgrass; 125 g ai/ha): 55; Plant response rating (0 = no effect, 100 = complete control), Foxtail, Giant (giant foxtail; 125 g ai/ha): 85; Plant response rating (0 = no effect, 100 = complete control), Goosegrass (goosegrass; 125 g ai/ha): 90; Plant response rating (0 = no effect, 100 = complete control), Ragweed (common ragweed; 125 g ai/ha): 85; Plant response rating (0 = no effect, 100 = complete control), Sunflower ([1]; 125 g ai/ha): 5
CCc1nn(C(C)C)nc1C(=O)Nc1cccc(C(=O)N(C)CC)c1 [Compound 386] | 90 | 95 | 50 | 95 | 95 | 80 | 90 | 100 | 85 | 95 | 95 | 5 | 100 | – | 85 | 65 | 75 | 80 | 80 | 100 | Plant response rating (0 = no effect, 100 = complete control), Bermudagrass (bermudagrass; 125 g ai/ha): 95; Plant response rating, Bermudagrass (bermudagrass; [4]): 95; Plant response rating (0 = no effect, 100 = complete control), Cupgrass, Woolly (woolly cupgrass; 125 g ai/ha): 90; Plant response rating (0 = no effect, 100 = complete control), Foxtail, Giant (giant foxtail; 125 g ai/ha): 90; Plant response rating (0 = no effect, 100 = complete control), Goosegrass (goosegrass; 125 g ai/ha): 95; Plant response rating (0 = no effect, 100 = complete control), Ragweed (common ragweed; 125 g ai/ha): 98; Plant response rating (0 = no effect, 100 = complete control), Sunflower ([1]; 125 g ai/ha): 40; Plant response rating, Sunflower ([1]; 250 g ai/ha, scale 0-100): 85
CCn1nc(C(C)(C)C)cc1C(=O)Nc1ccc(OC)c(OC)c1 [Compound 298] | 50 | 80 | 5 | 30 | 60 | 20 | 70 | 100 | 85 | 100 | 100 | 0 | 0 | 0 | 0 | 0 | 0 | 70 | 80 | 0 | Plant response rating, Bermudagrass (bermudagrass; [8]): 55; Bermudagrass plant response rating (bermudagrass; [9]): 95; Plant response rating, Cupgrass, Woolly (woolly cupgrass; [8]): 10; Plant response rating, Foxtail, Giant (giant foxtail; [8]): 70; Plant response rating, Goosegrass (goosegrass; [8]): 95; Plant response rating, Sunflower ([1]; 250 g ai/ha, scale 0-100): 0
CCNC(=O)c1ccc(F)c(NC(=O)c2cn(C(C)(C)C)nc2CC)c1 [Compound 193] | 60 | 85 | 10 | 60 | – | 40 | 80 | – | 60 | 80 | – | 0 | – | 0 | – | – | 75 | 80 | 85 | 100 | Plant response rating, Bermudagrass (bermudagrass; [8]): 80; Bermudagrass plant response rating (bermudagrass; [9]): 100; Plant response rating, Cupgrass, Woolly (woolly cupgrass; [8]): 40; Cupgrass, Woolly plant response rating (woolly cupgrass; [10]): 70; Plant response rating, Foxtail, Giant (giant foxtail; [8]): 50; Foxtail, Giant plant response rating (giant foxtail; [10]): 100; Plant response rating, Goosegrass (goosegrass; [8]): 80; Goosegrass plant response rating (goosegrass; [10]): 95; Plant response rating, Ragweed (common ragweed; [8]): 100; Ragweed plant response rating (common ragweed; [10]): 100; Plant response rating, Sunflower [1, 8]: 0; Plant response rating, Sunflower ([1]; 250 g ai/ha, scale 0-100): 0; Sunflower plant response rating [1, 10]: 50; Sedge, Umbrella plant response rating ([2]; 62 g ai/ha, scale 0 to 100 (0 no effect, 100 complete control)): 75
